According to US20030175438A1, “Treatments of solid substrates to enhance durability of treatments placed thereon” (priority 2002, published 2003):

Assay: Bromphenol Blue (BPB) Extraction Method, spectrophotometric at 595 nm (modified CTM 0824), on treated fabric
Format: physicochemical
Settings: for Strike Rate - % BPB Extraction: No Boil, Table XIII
Procedure: Sample Preparation: Fabric samples were obtained from the JoAnn fabric chain and were commercial fabrics. The fabrics were cut into rectangular size and were about 1½ inches by 2 inches, and were treated in 0.15 weight percent active antimicrobial agent placed in an Erlenmeyer flask. The agent used in this example was N, N-dimethyl-N-Octadecyl-3-(trimethoxysilyl)propanaminium chloride. The treatment solutions were allowed to hydrolyze from the trimethoxysilyl form to the trisilanol form before adding the fabrics. This takes only a few minutes to essentially complete. The solution temperature was raised to 100° C. before treating the fabrics for 60 seconds by immersion in the solutions with moderate agitation of the solution within the flask. After removing the samples from the hot solution, they were nip rolled to remove excess liquid. Wet Weight Pickup (WWP) was targeted to 100%. The samples were air dried before testing unless otherwise noted. The Extraction, stated in percent, was measured using the Bromphenol Blue Extraction Method using spectrophotometric determination. This method is CTM 0824, which has been modified for use herein in the following manner. The chlorinated solvent has been eliminated and the wavelength is 595 nm. Further, Dow Corning® A521 has been substituted for the Triton.RTM. X-100 wetting agent of the test. What is measured is the diminution of the BPB Absorbance at 595 nm relative to the BPB standard solution and it is reported in percent Extraction. Antimicrobial efficacy was determined using the CTM-0923 Dynamic Shake Flask Test unless otherwise stated.
The antimicrobial agent used in this example was the same as that used in example 1. The samples were handled the same as in example 1 with the exception of the following. Samples were air and/or oven dried before testing. The % Extraction was measured using the BPB Extraction Method using spectrophotometric determination at 595 nm. If determined, antimicrobial efficacy was determined using the CTM-0923 Dynamic Shake Flask Test. Co-treatments the addition of the fabric to a 0.20 molar solution of the anion plus 0.15 WPA antimicrobial agent. The co-treatment is carried out at 100° C., and the fabric was moderately agitated for 60 seconds. The antimicrobial treatment is the addition of the fabric to a solution of 0.15 WPA antimicrobial agent held at 100° C. with moderate agitation for 60 seconds. Excess solution is removed from the samples, and the WWP is determined by weighing. Boiling was done with 200 milliliters of distilled water in a glass container in a microwave oven. Power setting was 30%, and the solution was gently boiled for 30 minutes. Sample size was nominally 1 gram and fresh water was used for each boiling study. The testing results can be found on Table XIII to XIV, respectively, infra. To differentiate between the application rate of the antimicrobial on the fabric, 25% of the normal sample size, or 0.25 grams of fabric was used to obtain the BPB Extraction values that ranged between 5 and 99%. This yielded values of percent BPB extraction that were in the linear range of the test procedure. Using larger samples creates an inaccurate test.

Compound: CCCCCCCCCCCCCCCCCC[N+](C)(C)CCC[Si](OC)(OC)OC.[Cl-] [AMT, N, N-dimethyl-N-Octadecyl-3-(trimethoxysilyl)propanaminium chloride]
- BOILED IN WATER % EXTRACTION (130° C./30 minutes, Table XII): 27%
- % BPB EXTRACTION CHANGE (COTTON, boiled vs not boiled, Table IV): −1%
- EXTRACTION CHANGE (COTTON, boiled vs not boiled, Table VI): 0%
- % Extraction @ 595 nm (NYLON, boiled 30 minutes, Table VI): 11%
- % BPB EXTRACTION @ 595 nm (NYLON, boiled, Table IX): 19%
- % BPB EXTRACTION @ 595 nm (NYLON, not boiled, Table IX): 85%
- Boiling Durability % BPB EXTRACTION @ 595 nm (NYLON, not boiled, Table XVII): 80%
- Strike Rate - % BPB Extraction (Nylon, 0.25 grams of fabric): 8.01%
- Strike Rate - % BPB Extraction (Nylon, treatment at pH = 11): 45.1%
- Strike Rate - % BPB Extraction (PET Staple, treatment at pH = 11): 75.82%
- Boiling Durability - % BPB Extraction (PET, Boil 30 min., Table XIV): 17.9%
- Strike Rate - % BPB Extraction (PET, treatment at pH = 11): 62.57%
- % BPB EXTRACTION @ 595 nm (PET, boiled 30 minutes, Table XV): 36%
- % EXTRACTION CHANGE (PET, boiled vs not boiled, Table XVII): −64%
- % BPB EXTRACTION @ 595 nm (PET, not boiled, Table III): 94%
- Strike Rate - % BPB Extraction (Rayon, 0.25 grams of fabric): 6.94%
